Molecular target: T1, human Nav1.8 channels (Homo sapiens, UniProt Q9Y5Y9)
T1 construct: expressed in transfected cells
Test: Nav1.8 Qube automated patch-clamp assay
Assay type: cell-based
Details: human Nav1.8 stably expressed in HEK 293 cells; whole-cell voltage clamp, room temperature; resting or inactivated state not specified; read-out: IC50 values (nM) for Examples in the Nav1.8 Qube Assay
Method in brief: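 Whole-cell patch clamp at room temperature on HEK293 cells stably expressing human Nav1.8. A 1 Hz train of ten 20 ms pulses to 10 mV from −90 mV holding, with −67 mV repolarization, was applied; first- and tenth-pulse peak currents gave resting and inactivated-state IC50s by Hill fitting.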

T1 sequence (Q9Y5Y9 whole entry): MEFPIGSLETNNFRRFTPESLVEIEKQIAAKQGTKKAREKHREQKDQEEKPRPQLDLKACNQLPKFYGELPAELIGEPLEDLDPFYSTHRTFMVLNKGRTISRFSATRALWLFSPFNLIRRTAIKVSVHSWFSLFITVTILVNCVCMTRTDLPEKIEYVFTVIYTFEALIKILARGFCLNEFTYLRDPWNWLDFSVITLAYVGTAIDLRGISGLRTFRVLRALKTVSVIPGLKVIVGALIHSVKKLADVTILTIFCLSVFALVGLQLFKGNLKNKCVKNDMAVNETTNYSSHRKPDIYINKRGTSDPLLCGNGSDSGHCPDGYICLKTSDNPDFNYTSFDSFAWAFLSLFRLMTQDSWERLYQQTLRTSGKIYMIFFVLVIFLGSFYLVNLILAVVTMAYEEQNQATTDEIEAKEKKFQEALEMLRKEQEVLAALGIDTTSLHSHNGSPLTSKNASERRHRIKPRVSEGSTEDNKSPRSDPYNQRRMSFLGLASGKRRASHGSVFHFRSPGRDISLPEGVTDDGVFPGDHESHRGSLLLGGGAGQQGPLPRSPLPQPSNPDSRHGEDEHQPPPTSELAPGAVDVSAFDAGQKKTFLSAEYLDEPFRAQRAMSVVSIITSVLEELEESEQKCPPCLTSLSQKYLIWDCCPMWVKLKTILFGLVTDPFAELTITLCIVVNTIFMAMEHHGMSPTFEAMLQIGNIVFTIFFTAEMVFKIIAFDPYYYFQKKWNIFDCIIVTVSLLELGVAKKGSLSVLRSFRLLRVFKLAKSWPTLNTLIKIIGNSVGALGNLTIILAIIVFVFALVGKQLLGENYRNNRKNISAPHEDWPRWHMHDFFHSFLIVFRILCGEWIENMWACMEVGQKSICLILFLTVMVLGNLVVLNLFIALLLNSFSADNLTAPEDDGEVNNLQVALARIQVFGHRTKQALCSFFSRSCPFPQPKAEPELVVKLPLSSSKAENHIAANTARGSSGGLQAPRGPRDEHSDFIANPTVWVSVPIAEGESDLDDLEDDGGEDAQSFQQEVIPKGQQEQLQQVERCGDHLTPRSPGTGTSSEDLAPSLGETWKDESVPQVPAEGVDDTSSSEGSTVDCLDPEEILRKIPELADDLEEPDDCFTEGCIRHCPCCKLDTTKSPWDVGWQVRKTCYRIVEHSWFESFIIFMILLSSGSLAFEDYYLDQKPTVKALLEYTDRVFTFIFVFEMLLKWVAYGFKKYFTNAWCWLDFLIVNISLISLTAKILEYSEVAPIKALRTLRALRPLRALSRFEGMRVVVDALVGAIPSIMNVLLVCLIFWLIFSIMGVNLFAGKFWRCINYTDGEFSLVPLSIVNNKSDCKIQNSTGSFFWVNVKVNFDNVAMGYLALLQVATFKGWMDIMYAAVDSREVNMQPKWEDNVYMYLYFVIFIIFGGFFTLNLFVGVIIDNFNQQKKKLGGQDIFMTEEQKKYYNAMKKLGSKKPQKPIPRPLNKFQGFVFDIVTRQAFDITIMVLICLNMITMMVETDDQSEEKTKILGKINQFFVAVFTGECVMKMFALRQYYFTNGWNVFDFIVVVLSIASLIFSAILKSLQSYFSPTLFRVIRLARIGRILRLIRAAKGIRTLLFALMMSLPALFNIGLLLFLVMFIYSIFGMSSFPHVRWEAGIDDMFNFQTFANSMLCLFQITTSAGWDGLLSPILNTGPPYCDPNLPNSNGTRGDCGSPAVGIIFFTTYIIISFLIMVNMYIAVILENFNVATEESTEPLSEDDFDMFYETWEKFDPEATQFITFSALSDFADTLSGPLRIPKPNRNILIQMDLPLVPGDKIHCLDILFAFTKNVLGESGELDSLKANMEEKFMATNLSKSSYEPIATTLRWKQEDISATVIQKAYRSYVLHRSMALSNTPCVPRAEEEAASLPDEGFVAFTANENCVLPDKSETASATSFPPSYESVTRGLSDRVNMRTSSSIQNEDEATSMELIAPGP

SMILES | IC50
Cc1nc(N2CCOC(C(F)F)CC2)c(C(=O)Nc2ccnc(S(N)(=O)=O)c2)cc1Cl (single isomer, unassigned) [Example 116, 5-chloro-2-[(7R or 7S)-7-(difluoromethyl)-1,4-oxazepan-4-yl]-6-methyl-N-(2-sulfamoylpyridin-4-yl)pyridine-3-carboxamide] | 32 nM
NS(=O)(=O)c1cc(NC(=O)c2cc(C(F)(F)F)cnc2N2CC3CCC3(C(F)(F)F)C2)ccn1 (single isomer, unassigned) [Example 58, N-(2-sulfamoyl-4-pyridyl)-5-(trifluoromethyl)-2-[(1S,5S or 1R,5R)-1-(trifluoromethyl)-3-azabicyclo[3.2.0]heptan-3-yl]pyridin-3-carboxamide] | 10 nM
CC1(C)CN(c2ncc(C(F)(F)F)cc2C(=O)Nc2ccnc(S(N)(=O)=O)c2)CCN1CC(F)(F)F [Example 87, 2-[3,3-dimethyl-4-(2,2,2-trifluoroethyl)piperazin-1-yl]-N-(2-sulfamoyl-4-pyridyl)-5-(trifluoromethyl)pyridine-3-carboxamide] | 223 nM
CC1CN(c2nc(C(F)(F)F)c(Cl)cc2C(=O)Nc2ccnc(S(N)(=O)=O)c2)CCC1(F)F (single isomer, unassigned) [Example 165, (R or S)-5-chloro-2-(4,4-difluoro-3-methylpiperidin-1-yl)-N-(2-sulfamoylpyridin-4-yl)-6-(trifluoromethyl)nicotinamide] | 2.1 nM
Cc1nc(N2CCC(F)(F)CC2)c(C(=O)Nc2ccnc(S(N)(=O)=O)c2)cc1C(C)(C)C [Example 180, 5-(tert-butyl)-2-(4,4-difluoropiperidin-1-yl)-6-methyl-N-(2-sulfamoylpyridin-4-yl)nicotinamide] | 14 nM
CC1(C)CN(c2ncc(C(F)(F)F)cc2C(=O)Nc2ccnc(S(N)(=O)=O)c2)CC(C(F)(F)F)O1 (single isomer, unassigned) [Example 135, (R or S)-2-(2,2-dimethyl-6-(trifluoromethyl)morpholino)-N-(2-sulfamoylpyridin-4-yl)-5-(trifluoromethyl)nicotinamide] | 57 nM
Cc1nc(N2CCC(F)(F)C(C)C2)c(C(=O)Nc2ccnc(S(N)(=O)=O)c2)cc1Cl (single isomer, unassigned) [Example 55, (S or R)-5-chloro-2-(4,4-difluoro-3-methylpiperidin-1-yl)-6-methyl-N-(2-sulfamoylpyridin-4-yl)nicotinamide] | 1.4 nM
NS(=O)(=O)c1cc(NC(=O)c2ccc(C(F)F)nc2N2CCCC(F)(F)CC2)ccn1 [Example 174, 2-(4,4-difluoroazepan-1-yl)-6-(difluoromethyl)-N-(2-sulfamoylpyridin-4-yl)nicotinamide] | 4.1 nM
NS(=O)(=O)c1cc(NC(=O)c2cc(C(F)(F)F)cnc2N2C[C@@H]3[C@H](C2)C(F)(F)C3(F)F)ccn1 [Example 60, N-(2-sulfamoylpyridin-4-yl)-2-((1R,5S)-6,6,7,7-tetrafluoro-3-azabicyclo[3.2.0]heptan-3-yl)-5-(trifluoromethyl)nicotinamide] | 14 nM
NS(=O)(=O)c1cc(NC(=O)c2cc(C3CC3)c(C3CC3)nc2N2CCC(F)(F)CC2)ccn1 [Example 12, 5,6-dicyclopropyl-2-(4,4-difluoropiperidin-1-yl)-N-(2-sulfamoylpyridin-4-yl)nicotinamide] | 94 nM
NS(=O)(=O)c1cc(NC(=O)c2cc(C(F)(F)F)cnc2N2CCCO[C@@H](C(F)(F)F)C2)ccn1 [Example 105, (R)-N-(2-sulfamoylpyridin-4-yl)-5-(trifluoromethyl)-2-(2-(trifluoromethyl)-1,4-oxazepan-4-yl)nicotinamide] | 696 nM
CC1CN(c2nc(C(F)(F)F)ccc2C(=O)Nc2ccnc(S(N)(=O)=O)c2)CCC1(F)F (single isomer, unassigned) [Example 163, (S or R)-2-(4,4-difluoro-3-methylpiperidin-1-yl)-N-(2-sulfamoylpyridin-d-yl)-6-(trifluoromethyl)nicotinamide] | 10 nM
NS(=O)(=O)c1cc(NC(=O)c2cc(C(F)(F)F)cnc2N2CCC(C(F)(F)F)C2)ccn1 (centres unmarked) [Example 128, N-(2-sulfamoylpyridin-4-yl)-5-(trifluoromethyl)-2-[3-(trifluoromethyl)pyrrolidin-1-yl]pyridine-3-carboxamide] | 94 nM
NS(=O)(=O)c1cc(NC(=O)c2cc(C(F)(F)F)cnc2N2CCCC(Cc3ccc(C(F)(F)F)cc3)C2)ccn1 (centres unmarked) [Example 83, N-(2-sulfamoyl-4-pyridyl)-5-(trifluoromethyl)-2-[3-[[4-(trifluoromethyl)phenyl]methyl]-1-piperidyl]pyridine-3-carboxamide] | 114 nM
NS(=O)(=O)c1cc(NC(=O)c2cc(C3CC3)c(OC(F)(F)F)nc2N2CCC(F)(F)CC2)ccn1 [Example 182, 5-cyclopropyl-2-(4,4-difluoropiperidin-1-yl)-N-(2-sulfamoylpyridin-4-yl)-6-(trifluoromethoxy)nicotinamide] | 62 nM
CC1(C)CN(c2ncc(C(F)(F)F)cc2C(=O)Nc2ccnc(S(N)(=O)=O)c2)CC(C(F)(F)F)O1 (single isomer, unassigned) [Example 136, (S or R)-2-(2,2-dimethyl-6-(trifluoromethyl)-morpholino)-N-(2-sulfamoylpyridin-4-yl)-5-(trifluoromethyl)nicotinamide] | 494 nM

Continued, values first:

IC50 | SMILES
82 nM | NS(=O)(=O)c1cc(NC(=O)c2cc(C(F)(F)F)cnc2N2CCC3C(C2)C3(F)F)ccn1 (single isomer, unassigned) [Example 69, 2-((1S,6S or 1R,6R)-7,7-difluoro-3-azabicyclo[4.1.0]heptan-3-yl)-N-(2-sulfamoylpyridin-4-yl)-5-(trifluoromethyl)nicotinamide]
67 nM | NS(=O)(=O)c1cc(NC(=O)c2cc(C3CC3)c(OCC(F)(F)F)nc2N2CCC(F)(F)CC2)ccn1 [Example 20, 5-cyclopropyl-2-(4,4-difluoropiperidin-1-yl)-N-(2-sulfamoylpyridin-4-yl)-6-(2,2,2-trifluoroethoxy)nicotinamide]
177 nM | COc1cc(NC(=O)c2cc(C(F)(F)F)cnc2N2CCCC(F)(F)CC2)ccn1 [Example 146, 2-(4,4-difluoroazepan-1-yl)-N-(2-methoxy-4-pyridyl)-5-(trifluoro-methyl)pyridine-3-carboxamide]
54 nM | NS(=O)(=O)c1cc(NC(=O)c2cc(C(F)(F)F)cnc2N2CCC(C(F)(F)F)CC2)ccn1 [Example 82, N-(2-sulfamoyl-4-pyridyl)-5-(trifluoromethyl)-2-[4-(trifluoromethyl)-1-piperidyl]pyridine-3-carboxamide]
319 nM | CC1CC(F)(F)CCN1c1ncc(C(F)(F)F)cc1C(=O)Nc1ccnc(S(N)(=O)=O)c1 (single isomer, unassigned) [Example 74, (S or R)-2-(4,4-difluoro-2-methylpiperidin-1-yl)-N-(2-sulfamoylpyridin-4-yl)-5-(trifluoromethyl)nicotinamide]
174 nM | NS(=O)(=O)c1cncc(NC(=O)c2cc(Cl)cnc2N2CCC(F)(F)CC2)c1 [Example 10, 5-chloro-2-(4,4-difluoro-1-piperidyl)-N-(5-sulfamoyl-3-pyridyl)pyridine-3-carboxamide]
406 nM | NS(=O)(=O)c1cncc(NC(=O)c2cc(C(F)(F)F)cnc2N2CCC(F)(F)CC2)n1 [Example 1, 2-(4,4-difluoropiperidin-1-yl)-N-(6-sulfamoylpyrazin-2-yl)-5-(trifluoromethyl)nicotinamide]

Reference: US20210387966A1, “2-AMINO-N-HETEROARYL-NICOTINAMIDES AS NAV1.8 INHIBITORS” (Merck Sharp & Dohme Corp., priority 2018, published 2021)
